Results on two molecules are retold here after patent publication US20050281879A1, “Excipients in drug delivery vehicles” (priority 2003, published 2005).

Data set [1] is described as follows: Saturation concentration of bupivacaine hydrochloride in de-ionized water. The class given is physicochemical. As to conditions: DI water. On the procedure: Bupivacaine hydrochloride (Sigma-Aldrich Corporation, St. Louis, Mo.) was dissolved in de-ionized (DI) water at a concentration of 40 mg/ml (saturation). A calculated amount of sodium hydroxide (1 N solution) was added to the solution and the pH of the final mixtures was adjusted to 10 to precipitate the BP base. The precipitated product was filtered, and further washed with DI water for at least three times. The precipitated product was dried at approximately 40° C. in vacuum for 24 hours.

For data set [2] the following is noted: cited from earlier work.

Molecules are shown by their SMILES. Structures can show the parent of a compound that is named as a salt.

In the case of `CCCCN1CCCCC1C(=O)Nc1c(C)cccc1C` (centres unmarked) [Bupivacaine hydrochloride], the “concentration in de-ionized water (saturation)” value in data set [1] was 40000 µg/mL. As for `CC(=O)OCC(COC(C)=O)OC(C)=O` [triacetin], in data set [2], the “reported solubility in water” value is 7.17 grams in 100 ml of water.
